Laboratory results from PubChem BioAssay (NCI).
“And” between values parts separate entries of the source, which are not always exact repeats. Equal entries are not always repeated.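 Method: 48-hour compound exposure of cells in 96-well plates, five concentrations, linear interpolation of endpoints. At the GI50, growth is halved. The concentration for full growth arrest is given as TGI.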

Assays:
Assay in all cases: NCI tumour cell line growth inhibition, 48 h
HCT-15 colon = test system: HCT-15 colon
HL-60(TB) leukemia = test system: HL-60(TB) leukemia
HT29 colon = test system: HT29 colon
K-562 leukemia = test system: K-562 leukemia
KM12 colon = test system: KM12 colon
MOLT-4 leukemia = test system: MOLT-4 leukemia
NCI-H226 lung = test system: NCI-H226 lung
OVCAR-8 ovarian = test system: OVCAR-8 ovarian
SNB-75 CNS = test system: SNB-75 CNS
LOX IMVI melanoma = test system: LOX IMVI melanoma

SMILES | TGI (HCT-15 colon) | TGI (HL-60(TB) leukemia) | TGI (HT29 colon) | TGI (K-562 leukemia) | TGI (KM12 colon) | TGI (MOLT-4 leukemia) | TGI (NCI-H226 lung) | TGI (OVCAR-8 ovarian) | TGI (SNB-75 CNS) | TGI (LOX IMVI melanoma) | GI50 (HCT-15 colon) | GI50 (HL-60(TB) leukemia) | GI50 (HT29 colon) | GI50 (K-562 leukemia) | GI50 (KM12 colon) | GI50 (LOX IMVI melanoma) | GI50 (MOLT-4 leukemia) | GI50 (NCI-H226 lung) | GI50 (OVCAR-8 ovarian) | GI50 (SNB-75 CNS)
COc1cc(COC(=O)N(CC(=O)O)c2ccccc2)c([N+](=O)[O-])cc1OC | > 100 µM | > 100 µM | > 100 µM | > 100 µM | > 100 µM | > 100 µM | > 100 µM | > 100 µM | > 100 µM |  |  |  |  |  |  |  |  |  |  | 
CC(=O)OC(CCC1(C)OC1COc1ccc(CCNC(=O)c2ccccc2)cc1)C(C)(C)OC(C)=O (configuration not stated) | > 100 µM | > 100 µM | 44 µM | > 100 µM | 33.7 µM | > 100 µM | > 100 µM | 41.4 µM | > 100 µM | > 100 µM |  |  |  |  |  |  |  |  |  | 
COc1ccc(Nc2c3ccccc3nc3ccccc23)cc1 | 15.5 µM | 4.1 µM | 2.71 µM | 7.19 µM | 15 µM | 3.39 µM | 3.84 µM | 16.7 µM | 17.6 µM | 4.81 µM | 1.08 µM | 1.69 µM | 0.454 µM | 0.583 µM | 1.33 µM | 0.984 µM | 0.59 µM | 1.2 µM | 1.89 µM | 2.85 µM
COc1ccc2c(c1)n([O-])c1ccccc1[n+]2=O | > 100 µM and 37.3 µM | > 100 µM | > 100 µM | > 100 µM | > 100 µM and 46.2 µM | > 100 µM | 91.4 µM and 91.6 µM | > 100 µM and 55.7 µM | > 100 µM | > 100 µM and 31.6 µM |  | 45.2 µM and 4.54 µM |  | 42.6 µM and 15.6 µM |  | 29.5 µM and 7.2 µM |  |  |  | 
N#C/C(=C\NC(=S)c1ccncc1)c1nc2ccccc2s1 | > 100 µM | > 100 µM | > 100 µM | > 100 µM | > 100 µM | > 100 µM | > 100 µM | > 100 µM | > 100 µM | > 100 µM |  |  |  |  |  |  |  |  |  | 
COc1cc(/C=C/C(=O)c2ccc(NC(=O)CN3CCN(c4cc5c(cc4F)c(=O)c(C(=O)O)cn5C4CC4)CC3)cc2)cc(OC)c1OC | > 100 µM | > 29.8 µM | 1.02 µM | > 100 µM | 2.31 µM | > 100 µM | > 51 µM | 26.9 µM | > 23.9 µM | 2.24 µM | 0.575 µM | 1.75 µM | 0.285 µM | 0.36 µM | 0.451 µM | 0.511 µM | 1.27 µM | 1.52 µM | 0.401 µM | 2.41 µM
C=C1CC/C=C(\C)C(=O)C[C@@H]2[C@@H]1CC2(C)C | 3.23 µM | 0.507 µM | > 32.7 µM | > 100 µM | 39.1 µM |  | 42.8 µM | 29.7 µM | 26.3 µM | 7.06 µM |  |  |  |  |  |  |  |  |  | 
C=C(Br)N(CC)CC | > 100 µM | > 100 µM | > 100 µM | > 100 µM | > 100 µM | > 100 µM | > 100 µM | > 100 µM | > 100 µM | > 100 µM |  |  |  |  |  |  |  |  |  | 
O=C(/C=C/c1cc([N+](=O)[O-])ccc1Cl)c1ccccc1 | 88.2 µM | 96.4 µM | 19.4 µM | > 100 µM | 3.59 µM | > 100 µM | 59.3 µM | 33.5 µM | 99.6 µM | 6.79 µM | 8 µM | 32 µM | 3.36 µM | 6.66 µM | 1.8 µM | 2.6 µM | 21.1 µM | 15.4 µM | 12.2 µM | 21.7 µM
O=C1c2ccccc2C(=O)c2c1ccc(C1C(=O)c3ccccc3C1=O)c2-c1c(C2C(=O)c3ccccc3C2=O)ccc2c1C(=O)c1ccccc1C2=O | > 100 µM | > 100 µM | > 100 µM | > 100 µM | > 100 µM | 82.5 µM | > 100 µM | > 100 µM | > 100 µM | > 100 µM |  |  |  |  |  |  |  |  |  | 
NC(=O)c1ccc2nc(-c3ccc(Oc4ccc(Cl)cc4)cc3)[nH]c2c1 | 75 µM and 31 µM | 58.7 µM and 41.2 µM | 75 µM and 28.1 µM | 75 µM and 88.3 µM | 75 µM and 31.3 µM | 75 µM and 33.3 µM | 75 µM and 57.6 µM | 75 µM and 34.4 µM | 75 µM and 38.5 µM | 75 µM and 36.7 µM | 23.6 µM and 12.6 µM | 12.4 µM and 17.3 µM | 21.6 µM and 12.3 µM | 37.8 µM and 10.3 µM | 65 µM and 13.9 µM | 17.9 µM and 15.6 µM | 28.6 µM and 11.5 µM | 49.1 µM and 14 µM | 58 µM and 12.9 µM | 37 µM and 18.3 µM
O=C(Nc1nc2ncn(CCNCc3ccccc3)c2c(=O)[nH]1)c1ccccc1 | > 100 µM | > 100 µM | > 100 µM | > 100 µM | > 100 µM |  | > 100 µM | > 100 µM | > 100 µM | > 100 µM |  |  |  |  |  |  |  |  |  | 
Cc1cccc2c(=O)c3c(sc12)c(NCCNCCO)nc1ccccc13 | 2.89 µM | 3.59 µM | 3.13 µM |  | 3.19 µM | 3.21 µM | 3.32 µM |  | 2.43 µM | 2.92 µM | 1.46 µM | 1.89 µM | 1.4 µM |  | 1.64 µM | 1.5 µM | 1.53 µM | 1.56 µM |  | 1.15 µM
COc1cc(O)c(C(=O)/C=C/c2ccc(O)cc2)c(O)c1[C@@H]1C[C@H](CCc2ccc(O)cc2)O[C@H](c2ccc(O)cc2)C1 | 11.9 µM | 3.91 µM | 11.2 µM |  | 6.64 µM | 5.43 µM | 61.2 µM | 29.1 µM | 7.44 µM | 8.37 µM | 3.43 µM | 2.02 µM | 3.66 µM |  | 2.51 µM | 2.93 µM | 1.95 µM | 14.8 µM | 3.77 µM | 2.59 µM
CC(C)CCN=C(N)c1ccc(N2CCN(c3ccc(C(N)=NCCC(C)C)cc3)CC2)cc1 | > 100 µM | 26.1 µM | 30.2 µM | > 100 µM | 16.6 µM | 53.6 µM | 46.8 µM | > 100 µM |  | 57.3 µM | 37.6 µM | 4.74 µM | 6.51 µM | 2.09 µM | 3.82 µM | 21.2 µM | 14.6 µM | 17.9 µM | 6.57 µM | 
